Data reported in US20080207640A1, “Method of treating cell proliferative disorders using growth hormone secretagogues” (Sapphire Therapeutics, priority 2007, published 2008).
“And” between values parts separate entries of the source, which are not always exact repeats. Equal entries are not always repeated.

What was measured:
Type in all cases: in vivo, human
IGF-1 [1] = experiment: Example 1 double blind, placebo controlled, randomized study: IGF-1 levels
Experimental: (§1) A double blind, placebo controlled, randomized study was designed to investigate the ability of growth hormone secretagogues to be used for the treatment of cell proliferative disorders.
(§2) Subjects were separated in to two groups: the placebo group and the RC-1291 group. The RC-1291 group received 50 mg of RC-1291 in two 25 mg capsules daily. The capsules were microcrystalline cellulose, magnesium stearate and RC-1291 HCl (25 mg) in a hard gelatin capsule. The placebo group received two placebo capsules daily. The placebo capsule was microcrystalline cellulose in a hard gelatin capsule.
(§3) One hour before breakfast subjects were administered the two capsules after fasting during the night.
(§4) At various points over the course of the three month study, levels of IGFBP-3 and IGF-1 were measured in both the placebo and RC-1291 groups.

IGFBP-3 [2] = experiment: Example 1 double blind, placebo controlled, randomized study: IGFBP-3 levels
Experimental: as §1, §2, §3, §4

IGF-1 [3] = experiment: Example 2 second double blind, placebo controlled, randomized study: serum IGF-1; settings: for IGF-1: serum
Experimental: (§5) A second double blind, placebo controlled, randomized study was designed to investigate the ability of growth hormone secretagogues to be used for the treatment of cell proliferative disorders.
(§6) Subjects were separated into groups and administered a placebo or RC-1291 (Formula III). Each group was administered the appropriate number of capsules. The capsules were microcrystalline cellulose, magnesium stearate and RC-1291 HCl (25 mg) in a hard gelatin capsule. The placebo capsule was microcrystalline cellulose in a hard gelatin capsule. The RC-1291 groups received 50 mg or 100 mg of RC-1291 daily.
(§7) Serum was obtained at office visits, clearly labeled, and stored frozen at −20° C. prior to shipment on dry ice to CRL, Lenexa, Kans. for analysis. Samples were assayed for IGF-1 and IGFBP-3.

IGFBP-3 [4] = experiment: Example 2 second double blind, placebo controlled, randomized study: serum IGFBP-3; settings: for IGFBP-3: serum
Experimental: as §5, §6, §7

[5] = Example 3 cancer cachexia: lean body mass and total body mass by DEXA, subjects of Example 1; settings: FIG. 11
Experimental: (§8) The placebo controlled, randomized studies described above were used to investigate the ability of growth hormone secretagogues to treat subjects having cancer cachexia.
(§9) Total body mass and lean body mass were measured for subjects described in Example 1 (see FIGS. 10, and 11, respectively.) Lean body mass and total body mass were measured by dual-energy x-ray absorptiometry (DEXA). Total body weight was measured for subjects described in Example 2 (see, FIG. 12).

[6] = Example 3 cancer cachexia: total body weight, subjects of Example 2; settings: 50 and 100 mg, FIG. 12
Experimental: as §8, §9

[7] = 50 mg RC-1291 daily, capsules, at 4 weeks, N = 32
[8] = 50 mg RC-1291 daily, capsules, at 8 weeks, N = 32
[9] = 50 mg RC-1291 daily, capsules, at 12 weeks, N = 32
[10] = Example 1, 50 mg daily, vs placebo
[11] = Example 2, 50 mg or 100 mg daily, vs placebo

## CN(C)N(C)C(=O)[C@@]1(Cc2ccccc2)CCCN(C(=O)[C@@H](Cc2c[nH]c3ccccc23)NC(=O)C(C)(C)N)C1 [RC-1291]
IGF-1 [1]; [7]
  IGF-1 change from baseline (nM) At 4 weeks: 6.626 nM
IGF-1 [1]; [8]
  IGF-1 change from baseline (nM) At 8 weeks: 4.729 nM
IGF-1 [1]; [9]
  IGF-1 change from baseline (nM) At 12 weeks: 5.046 nM
IGF-1 [1]; [10]
  levels of IGF-1 (in words): raises the levels of both IGFBP-3 and IGF-1 in a statistically significant manner
IGFBP-3 [2]; [7]
  IGFBP-3 change from baseline (nM) At 4 weeks: 26.89 nM
IGFBP-3 [2]; [8]
  IGFBP-3 change from baseline (nM) At 8 weeks: 17.7 nM
IGFBP-3 [2]; [9]
  IGFBP-3 change from baseline (nM) At 12 weeks: 20.66 nM
IGFBP-3 [2]; Example 1, 50 mg daily
  effects on IGFBP-3 relative to effects on IGF-1, on a molar basis: greater than 3 fold
IGFBP-3 [2]; [10]
  levels of IGFBP-3 (in words): raises the levels of both IGFBP-3 and IGF-1 in a statistically significant manner
IGF-1 [3]; 50 mg daily, week 1
  IGF-1: 40.69 ng/mL and 5.32 nM
IGF-1 [3]; 50 mg daily, week 2
  IGF-1: 57 ng/mL and 7.45 nM
IGF-1 [3]; 50 mg daily, week 4
  IGF-1: 46.5 ng/mL and 6.08 nM
IGF-1 [3]; 100 mg daily, week 1
  IGF-1: 80.25 ng/mL and 10.49 nM
IGF-1 [3]; 100 mg daily, week 2
  IGF-1: 76.25 ng/mL and 9.97 nM
IGF-1 [3]; 100 mg daily, week 4
  IGF-1: 73.4 ng/mL and 9.60 nM
IGF-1 [3]; [11]
  levels of IGF-1 (in words): raised the levels of both IGFBP-3 and IGF-1 in a statistically significant manner
IGFBP-3 [4]; 50 mg daily, week 1
  IGFBP-3: 580 ng/mL and 20.19 nM
IGFBP-3 [4]; 50 mg daily, week 2
  IGFBP-3: 540 ng/mL and 18.79 nM
IGFBP-3 [4]; 50 mg daily, week 4
  IGFBP-3: 610 ng/mL and 21.23 nM
IGFBP-3 [4]; 100 mg daily, week 1
  IGFBP-3: 900 ng/mL and 31.32 nM
IGFBP-3 [4]; 100 mg daily, week 2
  IGFBP-3: 670 ng/mL and 23.32 nM
IGFBP-3 [4]; 100 mg daily, week 4
  IGFBP-3: 970 ng/mL and 33.76 nM
IGFBP-3 [4]; [11]
  levels of IGFBP-3 (in words): raised the levels of both IGFBP-3 and IGF-1 in a statistically significant manner
[5]
  change in lean body mass (in words): gained lean body mass and total body weight
[6]
  change in total body weight (in words): gained lean body mass and total body weight
